O=[N+]([O-])c1ncccc1O
solubility (mole fraction)
Settings	in THF	in acetone	in acetonitrile	in ethanol	in ethyl acetate	in isopropanol	in methanol	in n-hexane	in n-propanol	in water
278.15 K	0.213	0.157	0.113	0.0236	0.108	0.0158	0.0395	0.00055	0.0299	0.00083
283.15 K	0.243	0.184	0.141	0.0334	0.128	0.0226	0.0551	0.00077	0.0391	0.00107
288.15 K	0.274	0.219	0.171	0.0482	0.151	0.0318	0.0807	0.00105	0.0523	0.00149
293.15 K	0.312	0.259	0.207	0.0653	0.181	0.0442	0.111	0.00144	0.0716	0.0021
298.15 K	0.35	0.304	0.247	0.0924	0.215	0.0621	0.153	0.00192	0.0947	0.00283
303.15 K	0.396	0.354	0.299	0.128	0.254	0.0863	0.206	0.00266	0.127	0.00393
308.15 K	0.446	0.41	0.359	0.173	0.301	0.12	0.271	0.00373	0.17	0.00544
313.15 K	0.502	0.474	0.428	0.232	0.357	0.165	0.352	0.00522	0.224	0.00753
318.15 K	0.57	0.544	0.502	0.306	0.423	0.224	0.446	0.00736	0.292	0.0109
